Data as given in patent publication US20080176810A1, “Use of 3, 4', 5-Trihydroxy-Stilbene-3-Beta-D-glucoside in Prepartion of Medicines For Treating and/or Preventing Ischemic Heart Disease” (SHENZHEN NEPTUNUS PHARMACEUTICAL CO., LTD., priority 2004, published 2008).

Test system: anesthetized dogs
Test: Myocardial oxygen consumption, coronary flow, cardiac output in anesthetized dogs, iv
Format: in vivo
Details: c3-c8 5,15,30,60,90,120 min after administration; for cardiac output, x ± s / myocardial oxygen uptake, x ± s / coronary artery resistance, x ± s / myocardial oxygen consumption, x ± s / total peripheral resistance (TPR), x ± s: c2 0 min before
Description: Isosorbide Dinitrate control group were medicated by continuous intravenous infusion and other groups by intravenous injection.
The animals were anesthetised with 3% pentobarbital sodium iv at the dose of 30 mg/kg. Tracheal intubation was performed and SC-M5 anesthesia respirator (manufactured by Shanghai Medical Instrument Factory, frequency: 16˜18 per min, tidal volume: 350˜550 ml) was connected. Bilateral femoral arteries were separated for blood sampling and analyzing and measurement of mean blood pressure. Thoracotomy at the fourth intercostal space was performed to expose the heart and to open the pericardium to make pericardial hammock. Ascending aortic root and upper part of left branch of anterior descending coronary artery were dissociated to put respectively probes of electromagnetic flowmeter (MFV-1100/1200, made by Japanese Nihon Kohden Company) to measure cardiac output and coronary artery flow rate. Right jugular vein was separated for insertion of a cardiac catheter that was guided into coronary venous sinuses before fixation. Synchronously, blood was sampled by drawing from coronary sinus and femoral artery (0.5% heparin was added for anticoagulation). pO2 and pH were detected with a blood gas analyzer (DH-1830 Blood Gas Acid-base Analyze, Nanjing Ananalysis Apparatus Factor) and the values were converted to artery and venous oxygen content. After intravenous infusion of control solvent or the drug, constant infusion for all groups was completed with an electronic constant flow pump (SH-88AB Controllable Intravenous Injector made by Quanzhou Lizhong Electronic Medical Instrument Factory). Both artery and venous blood gas before administration or 5, 15, 30, 60, 90 and 120 min after administration was analyzed and mean blood pressure and cardiac output at 0, 5, 15, 30, 60, 90 and 120 min were observed.
Myocardial oxygen consumption(ml/min/100 g)=coronary flow ml/min/100 g×artery oxygen−coronary sinus oxygen ml %).
Myocardial oxygen uptake (%)=(artery oxygen ml %−coronary sinus oxygen ml %)/artery oxygen ml %
Total peripheral resistance of general circulation(dyn·s·cm−5)=mean arterial blood pressure[MAP(KPa)]×80/cardiac output[CO(L/min)]=mean arterial blood pressure[MAP(mmHg)]×10.6/cardiac output[CO(L/min)]
Coronary resistance[Kpa/ml/min]=mean arterial blood pressure[MAP(KPa)]/coronary artery flow.

[1] = TSG 5 mg/kg iv, before administration, 0 min
[2] = TSG 5 mg/kg iv, 5 min after administration
[3] = TSG 5 mg/kg iv, 15 min after administration
[4] = TSG 5 mg/kg iv, 30 min after administration
[5] = TSG 5 mg/kg iv, 60 min after administration
[6] = TSG 5 mg/kg iv, 90 min after administration
[7] = TSG 5 mg/kg iv, 120 min after administration
[8] = TSG 10 mg/kg iv, 0 min, before administration
[9] = TSG 10 mg/kg iv, 5 min after administration
[10] = TSG 10 mg/kg iv, 15 min after administration
[11] = TSG 10 mg/kg iv, 30 min after administration
[12] = TSG 10 mg/kg iv, 60 min after administration
[13] = TSG 10 mg/kg iv, 90 min after administration
[14] = TSG 10 mg/kg iv, 120 min after administration
[15] = TSG 10 mg/kg iv, before administration, 0 min

3,4′,5-trihydroxy-stilbene-3-β-D-glucoside [TSG]
cardiac output, x ± s [1]: 1.09 ± 0.14 L/min | myocardial oxygen uptake, x ± s [1]: 79.5 ± 6.93% | cardiac output, variation % [2]: 3.58 ± 2.00% | coronary artery resistance, variation % [2]: 3.03% | myocardial oxygen consumption, variation % [2]: −0.52 ± 1.59% | myocardial oxygen uptake, variation % [2]: 0.15% | total peripheral resistance (TPR), variation % [2]: −0.82 ± 2.72% | cardiac output, variation % [3]: 3.47 ± 0.97% | coronary artery resistance, variation % [3]: 2.18 ± 2.46% | total peripheral resistance (TPR), variation % [3]: 1.31 ± 2.04% | cardiac output, variation % [4]: 5.25 ± 2.62% | coronary artery resistance, variation % [4]: 0.02 ± 3.86% | myocardial oxygen consumption, variation % [4]: −0.59 ± 2.68% | myocardial oxygen uptake, variation % [4]: −5.76 ± 5.34 % | total peripheral resistance (TPR), variation % [4]: 0.90 ± 1.20% | cardiac output, variation % [5]: 6.05 ± 2.06 % | coronary artery resistance, variation % [5]: −3.62 ± 3.63% | myocardial oxygen consumption, variation % [5]: 0.68 ± 1.74% | myocardial oxygen uptake, variation % [5]: −6.24 ± 4.39 % | total peripheral resistance (TPR), variation % [5]: 0.20 ± 1.19% | cardiac output, variation % [6]: 5.98 ± 2.02 % | coronary artery resistance, variation % [6]: −4.03 ± 2.13% | myocardial oxygen consumption, variation % [6]: −0.91 ± 2.81% | myocardial oxygen uptake, variation % [6]: −5.51 ± 4.5 % | total peripheral resistance (TPR), variation % [6]: −1.59 ± 3.63% | cardiac output, variation % [7]: 4.86 ± 2.88% | coronary artery resistance, variation % [7]: −3.99 ± 3.34 % | total peripheral resistance (TPR), variation % [7]: −2.75 ± 3.55% | coronary artery resistance, x ± s [8]: 0.273 ± 0.032 Kpa/ml/min | myocardial oxygen consumption, x ± s [8]: 214.1 ± 6.66 mL/min.100 g^−1 | total peripheral resistance (TPR), x ± s [8]: 891.8 ± 93.4 dyn·s·cm^−5 | cardiac output, x ± s [9]: 1.13 ± 0.13 L/min | coronary artery resistance, x ± s [9]: 0.286 Kpa/ml/min | myocardial oxygen consumption, x ± s [9]: 211.0 ± 5.44 mL/min.100 g^−1 | myocardial oxygen uptake, x ± s [9]: 78.7% | total peripheral resistance (TPR), x ± s [9]: 890.5 ± 82.2 dyn·s·cm^−5 | cardiac output, x ± s [10]: 1.14 ± 0.14 L/min | coronary artery resistance, x ± s [10]: 0.278 ± 0.028 Kpa/ml/min | total peripheral resistance (TPR), x ± s [10]: 891.3 ± 78.1 dyn·s·cm^−5 | cardiac output, x ± s [11]: 1.16 ± 0.13 L/min | coronary artery resistance, x ± s [11]: 0.274 ± 0.035 Kpa/ml/min | myocardial oxygen consumption, x ± s [11]: 208.0 ± 5.3 mL/min.100 g^−1 | myocardial oxygen uptake, x ± s [11]: 71.3 ± 5.28% | total peripheral resistance (TPR), x ± s [11]: 903.4 ± 76.9 dyn·s·cm^−5 | cardiac output, x ± s [12]: 1.18 ± 0.14 L/min | coronary artery resistance, x ± s [12]: 0.267 ± 0.037 Kpa/ml/min | myocardial oxygen consumption, x ± s [12]: 210.3 ± 6.32 mL/min.100 g^−1 | myocardial oxygen uptake, x ± s [12]: 71.7 ± 5.71 % | total peripheral resistance (TPR), x ± s [12]: 878.7 ± 90.9 dyn·s·cm^−5 | cardiac output, x ± s [13]: 1.18 ± 0.15 L/min | coronary artery resistance, x ± s [13]: 0.270 ± 0.040 Kpa/ml/min | myocardial oxygen consumption, x ± s [13]: 209.1 ± 6.38 mL/min.100 g^−1 | myocardial oxygen uptake, x ± s [13]: 72.4 ± 5.51 % | total peripheral resistance (TPR), x ± s [13]: 872.9 ± 98.6 dyn·s·cm^−5 | cardiac output, x ± s [14]: 1.15 ± 0.16 L/min | coronary artery resistance, x ± s [14]: 0.263 ± 0.038 Kpa/ml/min | total peripheral resistance (TPR), x ± s [14]: 863.7 ± 80.0 dyn·s·cm^−5 | cardiac output, x ± s [15]: 1.08 ± 0.15 L/min | myocardial oxygen uptake, x ± s [15]: 80.0 ± 6.55% | cardiac output, variation % [9]: 4.60 ± 3.19% | coronary artery resistance, variation % [9]: 4.63% | myocardial oxygen consumption, variation % [9]: −1.45 ± 1.13% | myocardial oxygen uptake, variation % [9]: −1.46% | total peripheral resistance (TPR), variation % [9]: 0.02 ± 4.07% | cardiac output, variation % [10]: 5.74 ± 2.02 % | coronary artery resistance, variation % [10]: 1.79 ± 3.25% | total peripheral resistance (TPR), variation % [10]: 0.09 ± 2.25% | cardiac output, variation % [11]: 7.43 ± 3.40 % | coronary artery resistance, variation % [11]: 0.21 ± 1.44% | myocardial oxygen consumption, variation % [11]: −2.77 ± 3.75% | myocardial oxygen uptake, variation % [11]: −10.7 ± 4.01 % | total peripheral resistance (TPR), variation % [11]: 1.49 ± 3.81% | cardiac output, variation % [12]: 9.41 ± 4.82 % | coronary artery resistance, variation % [12]: −2.64 ± 2.78% | myocardial oxygen consumption, variation % [12]: −1.75 ± 3.51% | myocardial oxygen uptake, variation % [12]: −10.3 ± 5.25 % | total peripheral resistance (TPR), variation % [12]: −1.42 ± 3.68% | cardiac output, variation % [13]: 9.05 ± 2.24 % | coronary artery resistance, variation % [13]: −1.69 ± 4.78% | myocardial oxygen consumption, variation % [13]: −2.28 ± 3.5% | myocardial oxygen uptake, variation % [13]: −9.32 ± 3.22 % | total peripheral resistance (TPR), variation % [13]: −2.16 ± 2.50% | cardiac output, variation % [14]: 6.53 ± 2.43 % | coronary artery resistance, variation % [14]: −4.10 ± 5.44 % | total peripheral resistance (TPR), variation % [14]: −3.00 ± 4.04%
